From patent US20180127465A1 (priority 2015, published 2018)

Columns and labels:
[1] = system: primary cortical neurons; type: cell-based
[2] = system: mouse middle cerebral artery occlusion (MCAO) stroke model; settings: in vivo
[3] = system: primary cortical neurons; type: cell-based; remark: listed apart in the source
[4] = system: mouse middle cerebral artery occlusion (MCAO) stroke model; settings: in vivo; remark: listed apart in the source
[5] = system: primary cortical neurons; type: cell-based; remark: listed apart in the source
[6] = system: primary cortical neurons; type: cell-based; remark: listed apart in the source

Structure (SMILES) | neuronal cell death (LDH), in words [1] | improvement of neurological score [2] [%] | less LDH release [3] [%] | relative neuronal death (LDH), in words [3] | Horizontal Activity [4] | No. of Movements [4] | Rest Time [4] [s] | Stereotypy Counts [4] | Total Distance [4] [CM] | Vertical Activity [4] | relative neuronal survival (MTT), in words [5] | ROS production, in words [6]
C[C@@H](NC(=O)[C@@H](N)Cc1ccc(O)cc1)C(=O)NCC(=O)N[C@@H](Cc1ccccc1)C(=O)NNC(=O)[C@H](Cc1ccccc1)NC(=O)CNC(=O)[C@@H](C)NC(=O)[C@@H](N)Cc1ccc(O)cc1 [biphalin] | significantly decreased neuronal cell death | 25.5 | 18.4 | significantly decreased relative neuronal death | 760 ± 75 | 42 ± 6 | 240 ± 7 | 390 ± 46 | 650 ± 81 | 28 ± 3 | significantly improved relative neuronal survival | 
O=C1CC[C@@]2(O)[C@H]3Cc4ccc(O)c5c4[C@@]2(CCN3CC2CC2)[C@H]1O5 [NTX, naltrexone] | No statistical significant difference |  |  |  |  |  |  |  |  |  |  | did not show significant decrease in ROS production
